One assay has as its target T1, HDAC6 human recombinant (Homo sapiens, UniProt Q9UBN7).
T1 construct: purchased Calbiochem 382180
T1 sequence (Q9UBN7 1-1215): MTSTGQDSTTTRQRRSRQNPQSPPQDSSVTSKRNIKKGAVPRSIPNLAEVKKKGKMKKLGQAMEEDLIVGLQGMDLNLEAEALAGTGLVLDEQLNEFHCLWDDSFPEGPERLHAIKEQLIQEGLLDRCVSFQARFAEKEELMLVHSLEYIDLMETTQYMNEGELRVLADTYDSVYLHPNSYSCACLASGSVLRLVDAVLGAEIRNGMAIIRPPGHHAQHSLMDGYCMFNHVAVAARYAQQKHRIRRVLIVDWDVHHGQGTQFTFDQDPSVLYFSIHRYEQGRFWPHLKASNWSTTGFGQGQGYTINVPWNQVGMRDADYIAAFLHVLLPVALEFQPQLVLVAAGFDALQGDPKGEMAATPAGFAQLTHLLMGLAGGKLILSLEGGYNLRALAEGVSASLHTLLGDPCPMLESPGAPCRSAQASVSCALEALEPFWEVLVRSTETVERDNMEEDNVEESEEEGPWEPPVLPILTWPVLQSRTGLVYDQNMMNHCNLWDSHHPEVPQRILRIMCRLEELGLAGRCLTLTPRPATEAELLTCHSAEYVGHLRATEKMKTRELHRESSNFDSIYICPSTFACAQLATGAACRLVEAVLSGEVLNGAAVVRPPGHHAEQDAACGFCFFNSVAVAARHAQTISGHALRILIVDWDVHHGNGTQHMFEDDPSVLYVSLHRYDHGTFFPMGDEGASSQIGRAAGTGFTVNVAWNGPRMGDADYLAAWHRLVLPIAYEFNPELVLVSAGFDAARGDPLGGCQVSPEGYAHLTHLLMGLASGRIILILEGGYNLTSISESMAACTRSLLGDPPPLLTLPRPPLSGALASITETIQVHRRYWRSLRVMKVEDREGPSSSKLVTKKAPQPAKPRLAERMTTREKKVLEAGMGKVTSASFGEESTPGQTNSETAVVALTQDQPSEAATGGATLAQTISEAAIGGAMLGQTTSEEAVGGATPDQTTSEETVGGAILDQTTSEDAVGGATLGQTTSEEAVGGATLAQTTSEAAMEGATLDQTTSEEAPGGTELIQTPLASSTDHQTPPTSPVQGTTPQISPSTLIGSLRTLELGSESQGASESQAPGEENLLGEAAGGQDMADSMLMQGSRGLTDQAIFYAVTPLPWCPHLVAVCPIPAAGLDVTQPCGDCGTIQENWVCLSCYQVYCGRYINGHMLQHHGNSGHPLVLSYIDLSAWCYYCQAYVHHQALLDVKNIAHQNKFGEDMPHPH
The assay is described as follows: HDAC enzyme activity inhibition (in vitro), HDAC6 assay. In kind it is biochemical. The conditions noted are these: samples at 0.1, 1, 10, 100 and 1000 nM; 37° C. 60 minutes; fluorescence Ex 390, Em 460; read-out: HDAC6 IC50. In a few lines:
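Fluorescence (Ex 390, Em 460) read after a 37° C, 60 min enzyme reaction and a further 30 min developer step at 37° C. Uses recombinant human HDAC6; HDAC1 arm dosed at 100, 1000, 10000 nM.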

Another assay deals with T2, HDAC1 (Homo sapiens, UniProt Q13547).
T2 construct: purchased Enzolifesciences BML-AK511
The assay is described as follows: HDAC enzyme activity inhibition (in vitro), HDAC1 Fluorimetric Drug Discovery Assay Kit. In kind it is biochemical. The conditions noted are these: samples at 100, 1000 and 10000 nM; 37° C. 60 minutes; fluorescence Ex 390, Em 460; read-out: HDAC1 IC50. The method, boiled down: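 Fluorimetric read-out (Ex 390, Em 460) after a 60 min 37° C enzyme reaction and 30 min 37° C developer step. Tested levels: 0.1-1000 nM (0.1, 1, 10, 100, 1000) on recombinant human HDAC6; 100, 1000 and 10000 nM on HDAC1 kit enzyme.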

This passage reports IC50 results from patent US20230092890A1, “1, 3, 4-Oxadiazole derivative compounds as histone deacetylase 6 inhibitor, and the pharmaceutical composition comprising the same” (Chong Kun Dang Pharmaceutical Corp., priority 2019, published 2023).

As usually defined, the IC50 is the point on the concentration scale where inhibition reaches its midpoint.

T2 sequence (Q13547 whole entry): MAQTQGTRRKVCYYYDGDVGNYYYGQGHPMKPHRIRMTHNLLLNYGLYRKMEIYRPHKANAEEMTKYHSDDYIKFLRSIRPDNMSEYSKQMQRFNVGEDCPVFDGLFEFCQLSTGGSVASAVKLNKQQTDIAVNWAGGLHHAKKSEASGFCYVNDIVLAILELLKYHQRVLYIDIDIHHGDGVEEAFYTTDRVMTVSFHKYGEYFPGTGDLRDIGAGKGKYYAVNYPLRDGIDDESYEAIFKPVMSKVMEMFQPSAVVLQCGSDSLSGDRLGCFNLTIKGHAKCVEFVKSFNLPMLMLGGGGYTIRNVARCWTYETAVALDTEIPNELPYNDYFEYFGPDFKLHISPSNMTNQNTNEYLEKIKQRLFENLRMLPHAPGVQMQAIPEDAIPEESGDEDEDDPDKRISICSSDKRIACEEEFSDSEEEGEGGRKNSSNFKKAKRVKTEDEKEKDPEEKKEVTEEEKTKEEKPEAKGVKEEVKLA

Consider `Cn1c(=O)n(Cc2ccc(-c3nnc(C(F)F)o3)cn2)c2ccc(-c3cn[nH]c3)cc21` [Compound 247, 1-((5-(5-(difluoromethyl)-1,3,4-oxadiazole-2-yl)pyridine-2-yl)methyl)-3-methyl-5-(1H-pyrazole-4-yl)-1,3-dihydro-2H-benzo[d]imidazole-2-one], for which the results for the IC50 on HDAC6 human recombinant and on HDAC1 were 9 nM and over 10000 nM, respectively.
Consider `CN1CCC(n2c(=O)n(Cc3ccc(-c4nnc(C(F)F)o4)cn3)c3cc(F)c(-c4cn[nH]c4)cc32)CC1` [Compound 248, 1-((5-(5-(difluoromethyl)-1,3,4-oxadiazole-2-yl)pyridine-2-yl)methyl)-6-fluoro-3-(1-methylpiperidine-4-yl)-5-(1H-pyrazole-4-yl)-1,3-dihydro-2H-benzo[d]imidazole-2-one], for which the half-inhibitory concentration (IC50) at HDAC6 human recombinant was 6 nM; at HDAC1, over 10000 nM.
Take `CN1CCC(n2c(=O)n(Cc3ccc(-c4nnc(C(F)F)o4)cn3)c3cc(F)c(-c4ccnn4C)cc32)CC1` [Compound 249, 1-((5-(5-(difluoromethyl)-1,3,4-oxadiazole-2-yl)pyridine-2-yl)methyl)-6-fluoro-5-(1-methyl-1H-pyrazole-5-yl)-3-(1-methylpiperidine-4-yl)-1,3-dihydro-2H-benzo[d]imidazole-2-one]: the half-inhibitory concentration (IC50) is 18 nM at HDAC6 human recombinant and over 10000 nM on HDAC1.
In the case of `CN1CCC(n2c(=O)n(Cc3ccc(-c4nnc(C(F)F)o4)cn3)c3cc(F)c(-c4ccc5c(ccn5C)c4)cc32)CC1` [Compound 250, 1-((5-(5-(difluoromethyl)-1,3,4-oxadiazole-2-yl)pyridine-2-yl)methyl)-6-fluoro-5-(1-methyl-1H-indole-5-yl)-3-(1-methylpiperidine-4-yl)-1,3-dihydro-2H-benzo[d]imidazole-2-one], the IC50 was 18 nM on HDAC6 human recombinant and over 10000 nM at HDAC1.
As to `CN1CCC(n2c(=O)n(Cc3ccc(-c4nnc(C(F)F)o4)cn3)c3cc(F)c(-c4ccc5c(ccn5C(=O)OC(C)(C)C)c4)cc32)CC1` [Compound 251, tert-butyl 5-(1-((5-(5-(difluoromethyl)-1,3,4-oxadiazole-2-yl)pyridine-2-yl)methyl)-6-fluoro-3-(1-methylpiperidine-4-yl)-2-oxo-2,3-dihydro-1H-benzo[d]imidazole-5-yl)-1H-indole-1-carboxylate], the 50% inhibitory concentration (IC50) at HDAC6 human recombinant is 374 nM; at HDAC1, over 10000 nM.
Turning to `Cc1cc2cc(-c3cc4c(cc3F)n(Cc3ccc(-c5nnc(C(F)F)o5)cn3)c(=O)n4C3CCN(C)CC3)ccc2n1C(=O)OC(C)(C)C` [Compound 252, tert-butyl 5-(1-((5-(5-(difluoromethyl)-1,3,4-oxadiazole-2-yl)pyridine-2-yl)methyl)-6-fluoro-3-(1-methylpiperidine-4-yl)-2-oxo-2,3-dihydro-1H-benzo[d]imidazole-5-yl)-2-methyl-1H-indole-1-carboxylate], the IC50 on HDAC6 human recombinant was 207 nM; on HDAC1 it was over 10000 nM.
For `CN1CCC(n2c(=O)n(Cc3ccc(-c4nnc(C(F)F)o4)cn3)c3cc(F)c(-c4cc5ccccc5n4C(=O)OC(C)(C)C)cc32)CC1` [Compound 253, tert-butyl 2-(1-((5-(5-(difluoromethyl)-1,3,4-oxadiazole-2-yl)pyridine-2-yl)methyl)-6-fluoro-3-(1-methylpiperidine-4-yl)-2-oxo-2,3-dihydro-1H-benzo[d]imidazole-5-yl)-1H-indole-1-carboxylate], the IC50 at HDAC6 human recombinant is 271 nM; at HDAC1, over 10000 nM.
The matching figures for `CN1CCC(n2c(=O)n(Cc3ccc(-c4nnc(C(F)F)o4)cn3)c3cc(F)c(-c4cn(C(=O)OC(C)(C)C)c5ccc(Cl)cc45)cc32)CC1` [Compound 254]: 472 nM and over 10000 nM.
On to `CN1CCC(n2c(=O)n(Cc3ccc(-c4nnc(C(F)F)o4)cn3)c3cc(F)c(-c4ccc5c(cnn5C(=O)OC(C)(C)C)c4)cc32)CC1` [Compound 255, tert-butyl 5-(1-((5-(5-(difluoromethyl)-1,3,4-oxadiazole-2-yl)pyridine-2-yl)methyl)-6-fluoro-3-(1-methylpiperidine-4-yl)-2-oxo-2,3-dihydro-1H-benzo[d]imidazole-5-yl)-1H-indazole-1-carboxylate], for which the half-maximal inhibitory concentration (IC50) at HDAC6 human recombinant is 48 nM; at HDAC1, over 10000 nM.
As for `CN1CCC(n2c(=O)n(Cc3ccc(-c4nnc(C(F)F)o4)cn3)c3cc(F)c(-c4ccc5[nH]ncc5c4)cc32)CC1` [Compound 256, 1-((5-(5-(difluoromethyl)-1,3,4-oxadiazole-2-yl)pyridine-2-yl)methyl)-6-fluoro-5-(1H-indazole-5-yl)-3-(1-methylpiperidine-4-yl)-1,3-dihydro-2H-benzo[d]imidazole-2-one], the IC50 was 8 nM at HDAC6 human recombinant and over 10000 nM on HDAC1.
As for `CN1CC(n2c(=O)n(Cc3ccc(-c4nnc(C(F)F)o4)cn3)c3cc(F)c(-c4cccc5[nH]ccc45)cc32)C1` [Compound 257, 1-((5-(5-(difluoromethyl)-1,3,4-oxadiazole-2-yl)pyridine-2-yl)methyl)-6-fluoro-5-(1H-indole-4-yl)-3-(1-methylazetidine-3-yl)-1,3-dihydro-2H-benzo[d]imidazole-2-one], the IC50 at HDAC6 human recombinant is 12 nM; at HDAC1, over 10000 nM.
`CN1CC(n2c(=O)n(Cc3ccc(-c4nnc(C(F)F)o4)cn3)c3cc(F)c(-c4cccnc4)cc32)C1` [Compound 258, 1-((5-(5-(difluoromethyl)-1,3,4-oxadiazole-2-yl)pyridine-2-yl)methyl)-6-fluoro-3-(1-methylazetidine-3-yl)-5-(pyridine-3-yl)-1,3-dihydro-2H-benzo[d]imidazole-2-one]: the IC50 is 13 nM on HDAC6 human recombinant and over 10000 nM at HDAC1.
For `CN1CC(n2c(=O)n(Cc3ccc(-c4nnc(C(F)F)o4)cn3)c3cc(F)c(-c4ccncc4)cc32)C1` [Compound 259, 1-((5-(5-(difluoromethyl)-1,3,4-oxadiazole-2-yl)pyridine-2-yl)methyl)-6-fluoro-3-(1-methylazetidine-3-yl)-5-(pyridine-4-yl)-1,3-dihydro-2H-benzo[d]imidazole-2-one], the IC50 is 14 nM on HDAC6 human recombinant and over 10000 nM on HDAC1.
As for `CC(C)N1CCN(c2cc3c(cc2F)n(Cc2ccc(-c4nnc(C(F)F)o4)cn2)c(=O)n3C)CC1` [Compound 261, 1-((5-(5-(difluoromethyl)-1,3,4-oxadiazole-2-yl)pyridine-2-yl)methyl)-6-fluoro-5-(4-isopropylpiperazine-1-yl)-3-methyl-1,3-dihydro-2H-benzo[d]imidazole-2-one], the figures for the IC50 on HDAC6 human recombinant and at HDAC1 were 57 nM and over 10000 nM, respectively.
As to `Cn1c(=O)n(Cc2ccc(-c3nnc(C(F)F)o3)cn2)c2cc(F)c(N3CCN(CC(F)(F)C(F)F)CC3)cc21` [Compound 262, 1-((5-(5-(difluoromethyl)-1,3,4-oxadiazole-2-yl)pyridine-2-yl)methyl)-6-fluoro-3-methy 1-5-(4-(2,2,3,3-tetrafluoropropyl)piperazine-1-yl)-1,3-dihydro-2H-benzo[d]imidazole-2-one], the concentration for half-maximal inhibition (IC50) at HDAC6 human recombinant is 107 nM; at HDAC1, over 10000 nM.
As for `Cn1c(=O)n(Cc2ccc(-c3nnc(C(F)F)o3)cn2)c2cc(F)c(N3CCN(CC(F)(F)F)CC3)cc21` [Compound 263, 1-((5-(5-(difluoromethyl)-1,3,4-oxadiazole-2-yl)pyridine-2-yl)methyl)-6-fluoro-3-methy 1-5-(4-(2,2,2-trifluoroethyl)piperazine-1-yl)-1,3-dihydro-2H-benzo[d]imidazole-2-one], the 50% inhibitory concentration (IC50) was 59 nM at HDAC6 human recombinant and over 10000 nM on HDAC1.
